ChEMBL document CHEMBL1201862, “PubChem BioAssay data set” (2004)
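Cells were grown in 96-well plates and exposed to each compound for 48 hours at five concentrations; endpoints were interpolated linearly between bracketing concentrations, or set to the highest concentration if not reached. GI50 = concentration required for 50% inhibition of growth.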 Activity calls are given as the source filed them. Rule as the data show it: active = GI50 up to about 1.1 µM and inactive = higher.

Columns and labels:
Test in all cases: NCI tumour cell line growth inhibition, 48 h
ACHN = tested on: ACHN
HCT-116 = tested on: HCT-116
RXF 393 = tested on: RXF 393
U-251 = tested on: U-251
MDA-MB-435 = tested on: MDA-MB-435
K562 = tested on: K562
UACC-62 = tested on: UACC-62
NCI-H460 = tested on: NCI-H460
CCRF-CEM = tested on: CCRF-CEM
SNB-75 = tested on: SNB-75
COLO 205 = tested on: COLO 205
SF-268 = tested on: SF-268
MCF7 = tested on: MCF7
SW-620 = tested on: SW-620
HCT-15 = tested on: HCT-15
Malme-3M = tested on: Malme-3M
SR = tested on: SR
786-0 = tested on: 786-0
SK-MEL-28 = tested on: SK-MEL-28
MOLT-4 = tested on: MOLT-4
TK-10 = tested on: TK-10
NCI-H23 = tested on: NCI-H23
OVCAR-4 = tested on: OVCAR-4
MDA-N = tested on: MDA-N
OVCAR-3 = tested on: OVCAR-3
IGROV-1 = tested on: IGROV-1
HOP-92 = tested on: HOP-92
SF-539 = tested on: SF-539
MDA-MB-231 = tested on: MDA-MB-231
UACC-257 = tested on: UACC-257
HT-29 = tested on: HT-29
SK-OV-3 = tested on: SK-OV-3
OVCAR-8 = tested on: OVCAR-8
Hs-578T = tested on: Hs-578T
NCI/ADR-RES = tested on: NCI/ADR-RES
SK-MEL-2 = tested on: SK-MEL-2
EKVX = tested on: EKVX
DU-145 = tested on: DU-145
SF-295 = tested on: SF-295
T47D = tested on: T47D
UO-31 = tested on: UO-31
BT-549 = tested on: BT-549
NCI-H522 = tested on: NCI-H522
HOP-62 = tested on: HOP-62
PC-3 = tested on: PC-3
SNB-19 = tested on: SNB-19
SK-MEL-5 = tested on: SK-MEL-5
M14 = tested on: M14
A549 = tested on: A549
LOX IMVI = tested on: LOX IMVI
A498 = tested on: A498
KM12 = tested on: KM12
HCC 2998 = tested on: HCC 2998
HL-60 = tested on: HL-60
SN12C = tested on: SN12C
OVCAR-5 = tested on: OVCAR-5
RPMI-8226 = tested on: RPMI-8226
CAKI-1 = tested on: CAKI-1
NCI-H226 = tested on: NCI-H226

SMILES: COC(=O)c1c(CC(Cc2ccc3c(c2)CCCC3)C(=O)OC)ccc2c1CCCC2 (stereo not given)
- GI50 (ACHN): 45.1 µM (inactive)
- GI50 (HCT-116): 72.8 µM (inactive)
- GI50 (RXF 393): 60.5 µM (inactive)
- GI50 (U-251): 98.2 µM (inactive)
- GI50 (MDA-MB-435): 42.4 µM (inactive)
- GI50 (K562): 32.9 µM (inactive)
- GI50 (UACC-62): > 100 µM (inactive)
- GI50 (NCI-H460): 88.5 µM (inactive)
- GI50 (CCRF-CEM): 35.4 µM (inactive)
- GI50 (SNB-75): > 10 µM (inactive)
- GI50 (COLO 205): 19.9 µM (inactive)
- GI50 (SF-268): 55.3 µM (inactive)
- GI50 (MCF7): 20.6 µM (inactive)
- GI50 (SW-620): > 100 µM (inactive)
- GI50 (HCT-15): 46.2 µM
- GI50 (Malme-3M): 38 µM (inactive)
- GI50 (SR): 34.7 µM (inactive)
- GI50 (786-0): > 100 µM (inactive)
- GI50 (SK-MEL-28): > 100 µM (inactive)
- GI50 (MOLT-4): 27.2 µM (inactive)
- GI50 (TK-10): > 100 µM (inactive)
- GI50 (NCI-H23): 69.5 µM (inactive)
- GI50 (OVCAR-4): 5.68 µM (inactive)
- GI50 (MDA-N): 77.1 µM (inactive)
- GI50 (OVCAR-3): > 100 µM (inactive)
- GI50 (IGROV-1): > 100 µM (inactive)
- GI50 (HOP-92): 23 µM (inactive)
- GI50 (SF-539): > 100 µM (inactive)
- GI50 (MDA-MB-231): > 100 µM (inactive)
- GI50 (UACC-257): 24 µM (inactive)
- GI50 (HT-29): 24.4 µM (inactive)
- GI50 (SK-OV-3): 39.2 µM (inactive)
- GI50 (OVCAR-8): > 100 µM (inactive)
- GI50 (Hs-578T): > 100 µM (inactive)
- GI50 (NCI/ADR-RES): > 100 µM (inactive)
- GI50 (SK-MEL-2): > 100 µM (inactive)
- GI50 (EKVX): 19.5 µM (inactive)
- GI50 (DU-145): > 100 µM (inactive)
- GI50 (SF-295): > 100 µM (inactive)
- GI50 (T47D): 35.8 µM (inactive)
- GI50 (UO-31): 82.8 µM (inactive)
- GI50 (BT-549): > 100 µM (inactive)
- GI50 (NCI-H522): > 100 µM (inactive)
- GI50 (HOP-62): > 100 µM (inactive)
- GI50 (PC-3): 38.7 µM (inactive)
- GI50 (SNB-19): > 100 µM (inactive)
- GI50 (SK-MEL-5): 29.4 µM (inactive)
- GI50 (M14): > 100 µM (inactive)
- GI50 (A549): 37 µM (inactive)
- GI50 (LOX IMVI): 43 µM (inactive)
- GI50 (A498): > 100 µM (inactive)
- GI50 (KM12): 40.3 µM (inactive)
- GI50 (HCC 2998): 23.1 µM (inactive)
- GI50 (HL-60): 16.6 µM (inactive)
- GI50 (SN12C): > 100 µM (inactive)
- GI50 (OVCAR-5): > 100 µM (inactive)
- GI50 (RPMI-8226): 24.9 µM (inactive)
- GI50 (CAKI-1): > 100 µM (inactive)

SMILES: CCn1c2c(c3c(C(=O)OC)c(O)ccc31)C(=O)c1ccccc1C2=O
- GI50 (ACHN): 4.69 µM (inactive)
- GI50 (NCI-H226): 9.18 µM (inactive)
- GI50 (HCT-116): 13.1 µM (inactive)
- GI50 (RXF 393): 16.1 µM (inactive)
- GI50 (U-251): 14.7 µM (inactive)
- GI50 (MDA-MB-435): 12.9 µM (inactive)
- GI50 (K562): 20.4 µM (inactive)
- GI50 (NCI-H460): 7.19 µM (inactive)
- GI50 (CCRF-CEM): 15 µM (inactive)
- GI50 (SNB-75): 4.36 µM (inactive)
- GI50 (COLO 205): 17.1 µM (inactive)
- GI50 (SF-268): 15.3 µM (inactive)
- GI50 (MCF7): 16.4 µM (inactive)
- GI50 (SW-620): 15 µM (inactive)
- GI50 (HCT-15): 7.85 µM
- GI50 (Malme-3M): 15.8 µM (inactive)
- GI50 (SR): 11.3 µM (inactive)
- GI50 (786-0): 12.2 µM (inactive)
- GI50 (SK-MEL-28): 16.9 µM (inactive)
- GI50 (MOLT-4): 12.1 µM (inactive)
- GI50 (TK-10): 32.4 µM (inactive)
- GI50 (NCI-H23): 18.3 µM (inactive)
- GI50 (OVCAR-4): 10.2 µM (inactive)
- GI50 (MDA-N): 11.9 µM (inactive)
- GI50 (OVCAR-3): 16.4 µM (inactive)
- GI50 (IGROV-1): 3.61 µM (inactive)
- GI50 (HOP-92): 5.52 µM (inactive)
- GI50 (SF-539): 13.2 µM (inactive)
- GI50 (MDA-MB-231): 15.4 µM (inactive)
- GI50 (UACC-257): 40.6 µM (inactive)
- GI50 (HT-29): 19.3 µM (inactive)
- GI50 (SK-OV-3): 5 µM (inactive)
- GI50 (OVCAR-8): 11.6 µM (inactive)
- GI50 (Hs-578T): 10.1 µM (inactive)
- GI50 (NCI/ADR-RES): 16.6 µM (inactive)
- GI50 (SK-MEL-2): 11.5 µM (inactive)
- GI50 (EKVX): 26 µM (inactive)
- GI50 (DU-145): 11.1 µM (inactive)
- GI50 (SF-295): 17.3 µM (inactive)
- GI50 (T47D): 8.07 µM (inactive)
- GI50 (UO-31): 4.57 µM (inactive)
- GI50 (BT-549): 12.5 µM (inactive)
- GI50 (NCI-H522): 5.9 µM (inactive)
- GI50 (HOP-62): 15.7 µM (inactive)
- GI50 (PC-3): 12.4 µM (inactive)
- GI50 (SNB-19): 22.3 µM (inactive)
- GI50 (SK-MEL-5): 11.7 µM (inactive)
- GI50 (M14): 14.2 µM (inactive)
- GI50 (A549): 13.9 µM (inactive)
- GI50 (LOX IMVI): 13.2 µM (inactive)
- GI50 (KM12): 16.6 µM (inactive)
- GI50 (HCC 2998): 19.4 µM (inactive)
- GI50 (HL-60): 22.1 µM (inactive)
- GI50 (SN12C): 11.9 µM (inactive)
- GI50 (OVCAR-5): 18.4 µM (inactive)
- GI50 (RPMI-8226): 7.6 µM (inactive)
- GI50 (CAKI-1): 15.5 µM (inactive)

SMILES: Cc1nc([N+](=O)[O-])cn1-c1nc2ccccn2c1[N+](=O)[O-]
- GI50 (ACHN): > 100 µM (inactive)
- GI50 (NCI-H226): > 100 µM (inactive)
- GI50 (HCT-116): 74.3 µM (inactive)
- GI50 (RXF 393): 17.7 µM (inactive)
- GI50 (U-251): 53.2 µM (inactive)
- GI50 (MDA-MB-435): > 100 µM (inactive)
- GI50 (K562): 80.4 µM (inactive)
- GI50 (UACC-62): > 100 µM (inactive)
- GI50 (NCI-H460): 45.1 µM (inactive)
- GI50 (SNB-75): 32.9 µM (inactive)
- GI50 (COLO 205): 90.4 µM (inactive)
- GI50 (SF-268): > 100 µM (inactive)
- GI50 (MCF7): 95.3 µM (inactive)
- GI50 (SW-620): > 100 µM (inactive)
- GI50 (HCT-15): > 100 µM
- GI50 (Malme-3M): 43.8 µM (inactive)
- GI50 (SR): 42 µM (inactive)
- GI50 (786-0): 61.7 µM (inactive)
- GI50 (SK-MEL-28): > 100 µM (inactive)
- GI50 (TK-10): 67.5 µM (inactive)
- GI50 (NCI-H23): 47.8 µM (inactive)
- GI50 (OVCAR-4): > 100 µM (inactive)
- GI50 (MDA-N): 57.4 µM (inactive)
- GI50 (OVCAR-3): > 100 µM (inactive)
- GI50 (IGROV-1): 68.9 µM (inactive)
- GI50 (HOP-92): > 100 µM (inactive)
- GI50 (SF-539): 68.2 µM (inactive)
- GI50 (MDA-MB-231): 56.4 µM (inactive)
- GI50 (UACC-257): 99.3 µM (inactive)
- GI50 (HT-29): 64.9 µM (inactive)
- GI50 (SK-OV-3): 47.2 µM (inactive)
- GI50 (OVCAR-8): 86.1 µM (inactive)
- GI50 (Hs-578T): > 100 µM (inactive)
- GI50 (NCI/ADR-RES): > 100 µM (inactive)
- GI50 (SK-MEL-2): 43.4 µM (inactive)
- GI50 (EKVX): 63.7 µM (inactive)
- GI50 (DU-145): 26.5 µM (inactive)
- GI50 (SF-295): > 100 µM (inactive)
- GI50 (T47D): 43.7 µM (inactive)
- GI50 (UO-31): 88.5 µM (inactive)
- GI50 (BT-549): > 100 µM (inactive)
- GI50 (NCI-H522): 55 µM (inactive)
- GI50 (HOP-62): 55.1 µM (inactive)
- GI50 (PC-3): 38.4 µM (inactive)
- GI50 (SNB-19): 80.2 µM (inactive)
- GI50 (SK-MEL-5): 81.8 µM (inactive)
- GI50 (M14): > 100 µM (inactive)
- GI50 (A549): > 100 µM (inactive)
- GI50 (A498): > 100 µM (inactive)
- GI50 (KM12): 48.8 µM (inactive)
- GI50 (HCC 2998): 41.2 µM (inactive)
- GI50 (SN12C): 30 µM (inactive)
- GI50 (OVCAR-5): > 100 µM (inactive)
- GI50 (RPMI-8226): 64.1 µM (inactive)
- GI50 (CAKI-1): 53.5 µM (inactive)
